Paper PMC10561090, “Modulation of HIV-1 capsid multimerization by sennoside A and sennoside B via interaction with the NTD/CTD interface in capsid hexamer” (Frontiers in Microbiology, 2023)
“And” between values parts separate entries of the source, which are not always exact repeats. Equal values may be shown once. Read-outs that look alike come from different tables or passages of the source. Where no end group is shown, it is not given here. The star is where a group is joined. Biotin = O=C1N[C@H]2[C@H](CS[C@H]2CCCCC(=O)*)N1

Columns and labels:
[1] = biological target: T1, HIV-1 CA CTD/CAI interaction (Human immunodeficiency virus type 1 group M subtype B, UniProt P12493); experiment: biochemical; assay type: binding; conditions: for IC50: 12-point two-fold dilution 50 to 0.024 μM, n = 3; for inhibition at 50 µM: read-out: IR (%), inhibitory rate
T1 construct: DNA encoding the CA CTD was cloned into BamHI-NotI sites of prokaryotic expression vector pGEX-4 T-1; made in house; host or cells: E. coli BL21(DE3)
Description: The Discovery Probe FDA-approved Drug Library comprised 1,971 compounds, which were available as stock solutions at 10 mM concentrations in DMSO. Primary screening of these compounds was conducted using a previously established HTRF assay ([Zhang et al., 2019]). Briefly, compound (1 μL), CAI-biotin peptide (2 μL) and GST-CA CTD (2 μL) were dispensed into 384-well microplates. After 30 min incubation at room temperature, 5 μL premixed HTRF agents were added. After an additional 1 h incubation at room temperature, the HTRF signal was acquired by reading the plates in a PerkinElmer Envision Multilabel Plate Reader. Data were analyzed and visualized using GraphPad Prism (version 5.0). […] The quality of the assay was determined by calculating the Z’-factor using the following equation: Z’ = 1 - (3 × SDmax + 3 × SDmin) / |μmax - μmin|, where SDmax and SDmin represent the standard deviations of the positive and negative control measurements, respectively, and μmax and μmin represent the means of the respective positive and negative signal controls ([Zhang et al., 1999]).
We screened a library of 1,971 small molecules, all of which were FDA-approved. Each compound was tested in duplicate at a concentration of 50 μM. […] The remaining compounds were further validated through dose–response analysis using the HTRF assay.
Seven hit compounds were repurchased and subjected to a 12-point two-fold serial dilution, from 50 to 0.024 μM. […] This assay was conducted using three different concentrations of the compounds to determine their binding to monomeric CA.

[2] = biological target: T2, HIV-1 CA (Human immunodeficiency virus type 1 group M subtype B, UniProt P12493); experiment: In vitro assembly of recombinant CA (absorbance at 350 nm); assay type: biochemical; conditions: 2.5 M NaCl, absorbance at 350 nm over time
T2 construct: capsid proteins (CA) released by proteolytic processing of Gag; made in house
Description: To monitor the in vitro assembly of HIV-1 CA in the presence and absence of hit compounds, changes in sample absorbance over time at 350 nm were measured, as previously described ([Lanman et al., 2002]; [Tang et al., 2003]; [Xu et al., 2018]). To initiate the assay, 1 μL of 5 mM SA or SB was added to 74 μL of buffer composed of a mixture of 5 M NaCl and 200 mM NaH2PO4 (pH 8.0) in a ratio of 2:1 by volume. Subsequently, 25 μL of CA (120 μM) was added to each well and DMSO served as a vehicle control. After a 2-min equilibration period, sample absorbance values were measured at 350 nm every 60 s for 39 min using a Perkin Elmer Envision microplate reader and were corrected by subtracting the absorbance values of a blank sample without sodium chloride. The resulting data were analyzed using GraphPad Prism 5.0.
Under high ionic strength conditions, recombinant CA can spontaneously oligomerize and form open-ended helical tubes consisting of repeating CA hexamers. To investigate the impact of SA and SB on CA tube assembly, we monitored in vitro CA assembly in the presence and absence of SA and SB by measuring changes in light absorbance over time in 2.5 M NaCl. CA (25 μM) for CA. […] We used BLI to determine the KD values of SA and SB in the HIV-1 CA hexamer.
Figure 4 Sennoside A and Sennoside B induced CA multimerization in vitro. (A–B) Light scattering (absorbance at 350 nm) responses showing the rate and extent of in vitro CA (20 μM) assembly in 2.5 M NaCl, in absence of compounds (mock) and the presence of Sennoside A and Sennoside B or CAI. Data are representative of three independent experiments. (C–D) Representative binding sensorgrams depicting the interaction of SA or SB with CA hexamer assessed by bio-layer interferometry (BLI) detection.

[3] = biological target: T3, HIV-1 CA monomer (WT) (Human immunodeficiency virus type 1 group M subtype B, UniProt P12493); experiment: biochemical; assay type: binding; conditions: 7.5–30 μM compound, 1:1 model, mean ± SD
T3 construct: capsid proteins (CA) released by proteolytic processing of Gag; made in house

[4] = biological target: HIV-1 CA monomer (Y169A) (Human immunodeficiency virus type 1 group M subtype B, UniProt P12493, Y301A); experiment: biochemical; assay type: binding
[5] = biological target: HIV-1 CA monomer (E187A) (Human immunodeficiency virus type 1 group M subtype B, UniProt P12493, E319A); experiment: biochemical; assay type: binding
[6] = biological target: HIV-1 CA monomer (L211A) (Human immunodeficiency virus type 1 group M subtype B, UniProt P12493, L343A); experiment: biochemical; assay type: binding
[7] = biological target: HIV-1 CA monomer (L211S) (Human immunodeficiency virus type 1 group M subtype B, UniProt P12493, L343S); experiment: biochemical; assay type: binding
[8] = biological target: HIV-1 CA monomer (N183A) (Human immunodeficiency virus type 1 group M subtype B, UniProt P12493, N315A); experiment: biochemical; assay type: binding
[9] = biological target: HIV-1 CA hexamer (Human immunodeficiency virus type 1 group M subtype B, UniProt P12493, A146C/E177C/M317A/W316A); experiment: BLI binding to CA hexamer
[10] = biological target: T4, CA hexamer/CPSF6 peptide interaction (Human immunodeficiency virus type 1 group M subtype B, UniProt P12493, A146C/E177C/M317A/W316A); assay type: binding, HIV-1
T4 construct: capsid proteins (CA) released by proteolytic processing of Gag; made in house
Description: As mentioned previously, this pocket is the binding site for two host cell proteins, CPSF6 and NUP153 ([Price et al., 2014]). […] We then performed a BLI-based competition assay. CA hexamer at a concentration of 5 μM, either alone or in combination with high concentrations of SA or SB or PF-74, were used to bind to the SA biosensor loaded with biotinylated CPSF6_313–327 or NUP153_1407–1423.
Biotinylated hexameric CA was firstly loaded to streptavidin-coated biosensors. Then the biosensors were dipped into the plate wells containing CPSF6_308-327 or NUP153_1407–1423 in the absence or presence of PF74 or SA or SB. BLI signals were captured by Octet96 system and data were normalized according to the signal in the absence of compound. Comparisons between data were carried out using the paired t-test by GraphPad Prism 5.0. The double asterisk (^**) and three asterisks (^***) represent p < 0.01 and < 0.001 from the paired t test, respectively.

[11] = tested on: HIV-1; experiment: Anti-HIV-1 activity, virus-induced cytopathic effect in C8166 cells; assay type: cell-based; conditions: for IC50: Human immunodeficiency virus 1, M.O.I 0.03, 72 h, read-out: IC50 against HIV-1 induced CPE
Description: (§1) Anti-HIV-1 activity was determined by an assay based on virus-induced cytopathic effects (CPE) ([Zhang et al., 2020]). Briefly, C8166 cells were infected with HIV-1 at a multiplicity of infection (M.O.I) of 0.03, with DMSO or diluted SA or SB in 96-well plates. […] The cytotoxicity of the compounds was determined by a tetrazolium dye (MTT) based assay. C8166 cells were co-incubated with diluted SA or SB in 96-well plates. After 3 days, cell viability was determined using MTT, and the 50% cytotoxicity concentration (CC50) was calculated. […] Tenofovir disoproxil fumarate (TDF) was used as a positive control.
(§2) To further evaluate the antiviral effects of SA and SB, we tested them for protecting C8166 cells from HIV-1-induced CPE. The cytotoxic effect of these compounds on C8166 cells was also assessed.

[12] = Cytotoxicity, MTT assay; assay type: cell-based; conditions: human, C8166 cells
Description: as §1, §2

[13] = tested on: SARS-CoV-2 main protease; conditions: cited from earlier work
[14] = biological target: HIV-1 CA monomer (L211A); experiment: biochemical; assay type: binding; conditions: CA L211A compared to WT CA
[15] = biological target: HIV-1 reverse transcriptase-associated DNA Polymerase; parameters: method as in Esposito et al., 2016; conditions: ref Esposito et al., 2016; cited from earlier work
[16] = biological target: RNase H; parameters: method as in Esposito et al., 2016; conditions: ref Esposito et al., 2016; cited from earlier work
[17] = biological target: integrase; parameters: method as in Esposito et al., 2016; conditions: ref Esposito et al., 2016; cited from earlier work
[18] = tested on: protease of zika virus; conditions: ref Coelho et al., 2022; cited from earlier work
[19] = tested on: HIV-1; parameters: method as in Esposito et al., 2016; conditions: cell-based assays, ref Esposito et al., 2016; read-out: EC50, anti-HIV-1 activity; cited from earlier work
[20] = primary screening, compound at 50 μM, duplicate
[21] = 5 μM CA hexamer, PF74 2.5 μM, SA 225 μM, SB 175 μM

Compound `CC[C@H](C)C[C@H](C)CCCCCCCCC(=O)N[C@H]1C[C@@H](O)[C@@H](NCCN)NC(=O)[C@@H]2[C@@H](O)CCN2C(=O)[C@H]([C@H](O)CCN)NC(=O)[C@H]([C@H](O)[C@@H](O)c2ccc(O)cc2)NC(=O)[C@@H]2C[C@@H](O)CN2C(=O)[C@H]([C@@H](C)O)NC1=O` [Caspofungin] has an IC50 [1] of 29.5 µM and an inhibition at 50 µM [1, 20] of 94.2%.

With “CAI: dodecapeptide capsid assembly inhibitor identified by phage display, positive control (ITFEDLLDYYPGGGSK(Biotin))” the “effect on in vitro CA assembly” value [2] was “inhibited CA assembly in vitro”.

For `O=C(O)c1cc(O)c2c(c1)[C@@H]([C@H]1c3cc(C(=O)O)cc(O)c3C(=O)c3c(O[C@@H]4O[C@H](CO)[C@@H](O)[C@H](O)[C@H]4O)cccc31)c1cccc(O[C@@H]3O[C@H](CO)[C@@H](O)[C@H](O)[C@H]3O)c1C2=O` [Sennoside B, sennoside B], the IC50 [1] was 0.08 µM, the inhibition at 50 µM [1, 20] was 95.1% and the Kd [3] was 1.62 µM. For the same compound, the Kd [4] was 2.8 ± 0.07 µM, the Kd [5] was 6.77 ± 0.2 µM and the Kd [6] was 2.52 ± 0.07 µM. For the same compound, the Kd [7] was 4.84 ± 0.12 µM, the Kd [8] was 3.96 ± 0.11 µM and the Kd [9] was 2.25 µM and 1.75 µM. For the same compound, the “effect on in vitro CA assembly” value [2] was “increased in vitro CA assembly in a dose-dependent manner”, the “effect on CA hexamer/CPSF6 peptide interaction” value [10, 21] was “inhibited” and the “selectivity index (SI = CC50/EC50)” value [11] was “less than 10”. For the same compound, the IC50 [11] was 4.73 µM, the CC50 at 3 days [12] was 33.4 µM and the IC50 [13] was 0.104 µM.

Compound `O=C(O)c1cc(O)c2c(c1)[C@H]([C@H]1c3cc(C(=O)O)cc(O)c3C(=O)c3c(O[C@@H]4O[C@H](CO)[C@@H](O)[C@H](O)[C@H]4O)cccc31)c1cccc(O[C@@H]3O[C@H](CO)[C@@H](O)[C@H](O)[C@H]3O)c1C2=O` [Sennoside A, sennoside A] has an IC50 [1] of 0.18 µM, an inhibition at 50 µM [1, 20] of 94.7% and a Kd [3] of 2.34 µM. For the same compound, the Kd [4] was 8.8 ± 0.29 µM, the Kd [5] was 7.69 ± 0.25 µM and the Kd [6] was 3.17 ± 0.09 µM. It also gave a KD fold change [14] of 1.35, a Kd [7] of 7 ± 0.18 µM and a Kd [8] of 1.95 ± 0.06 µM. The Kd [9] was 1.75 µM and 2.25 µM, the “effect on in vitro CA assembly” value [2] was “increased in vitro CA assembly in a dose-dependent manner” and the “effect on CA hexamer/CPSF6 peptide interaction” value [10, 21] was “inhibited”. For the same compound, the “selectivity index (SI = CC50/EC50)” value [11] was “less than 10”, the IC50 [11] was 2.27 µM and the CC50 at 3 days [12] was 22.6 µM. For the same compound, the IC50 [15] was 5.3 µM, the IC50 [16] was 1.9 µM and the IC50 [17] was 3.8 µM. For the same compound, the IC50 [18] was 0.66 µM and the EC50 [19] was about 9 µM.

In the case of PF-74, the “effect on CA hexamer/CPSF6 peptide interaction” value [10] is reported as “inhibited, to a degree”.

With `CCCCCCCCCCCC1=C(O)C(=O)C=C(O)C1=O` [Embelin] the inhibition at 50 µM [1, 20] was 94.3%.

Compound `O=C(O)CCCC[C@@H]1SC[C@@H]2NC(=O)N[C@@H]21` [Biotin] has an inhibition at 50 µM [1] of 98.8%.
